Values quoted from earlier work in paper PMC3048208 (British Journal of Cancer, 2011).
Counter-ions that a name gives are not always drawn.

System: other zinc-binding enzymes
Parameters: method as in Novotny-Diermayr et al, 2010
Settings: in vitro; ref Novotny-Diermayr et al, 2010; cited from earlier work

Question: For `CCCCc1nc2cc(/C=C/C(=O)NO)ccc2n1CCN(CC)CC` [SB939, 3-[2-butyl-1-(2-diethylaminoethyl)-1H-benzoimidazol-5-yl]-N-hydroxyacrylami-hydrochloride], which “Effects on other zinc-binding enzymes” value is on record?
Answer: no effects
